ChEMBL document CHEMBL1142886, “Substrate specificity analysis and inhibitor design of homoisocitrate dehydrogenase” (Bioorg Med Chem, 2007)

Key:
[1] = Inhibition of Deinococcus radiodurans homoisocitrate dehydrogenase
[2] = molecular target: Homoisocitrate dehydrogenase, mitochondrial (Saccharomyces cerevisiae S288c, UniProt P40495); assay: Inhibition of Saccharomyces cerevisiae homoisocitrate dehydrogenase expressed in Escherichia coli Rosetta cells above 10 mM
Sequence of Homoisocitrate dehydrogenase, mitochondrial (P40495 whole entry): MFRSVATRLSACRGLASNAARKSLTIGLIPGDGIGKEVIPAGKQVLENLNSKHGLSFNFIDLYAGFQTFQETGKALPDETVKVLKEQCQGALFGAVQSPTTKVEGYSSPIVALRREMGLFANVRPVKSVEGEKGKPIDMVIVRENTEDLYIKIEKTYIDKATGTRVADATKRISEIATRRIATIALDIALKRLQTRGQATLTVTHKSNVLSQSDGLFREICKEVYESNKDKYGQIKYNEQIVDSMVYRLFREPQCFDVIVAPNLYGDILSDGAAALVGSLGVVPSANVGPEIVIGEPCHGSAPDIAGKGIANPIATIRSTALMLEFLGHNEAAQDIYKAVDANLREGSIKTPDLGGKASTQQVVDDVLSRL

Row | SMILES | Ki [1] [µM] | Ki [2] [µM]
1 | C=C[C@H](C(=O)O)[C@@H](O)C(=O)O | 88 | 
2 | O=C(O)/C(=C/CCO)[C@@H](O)C(=O)O | 5200 | 1400
3 | O=C(O)/C(=C\CCO)[C@@H](O)C(=O)O | 15300 | 510
4 | O=C(O)CC/C=C(\C(=O)O)[C@@H](O)C(=O)O | 260 | 72
5 | O=C(O)CC/C=C(/C(=O)O)[C@@H](O)C(=O)O | 3100 | 790
